# In US7074789B2, “Kinase inhibitors” (Amgen Inc., priority 1999, dated 2006):
# Key:
# Type in all cases: biochemical
# [1] = target: T1, Lck (Homo sapiens, UniProt P06239); test: Kinase inhibition assay (33P transfer), Lck; settings: for IC50: read-out: Lck-1
# T1 construct: Kinases are expressed as either kinase domains or full length constructs; made in house
# Summary of the method: (§1)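 33P-ATP transfer to coated synthetic polymer substrates; acid wash (0.5% H3PO4), scintillant, liquid scintillation count. Enzymes: His- or GST-fusion kinases from E. coli or High Five insect cells.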
# [2] = target: T2, Zap-70 (Homo sapiens, UniProt P43403); test: Kinase inhibition assay (33P transfer), Zap-70; settings: for IC50: read-out: Zap-1
# T2 construct: Kinases are expressed as either kinase domains or full length constructs; made in house
# T2 sequence (P43403 1-619): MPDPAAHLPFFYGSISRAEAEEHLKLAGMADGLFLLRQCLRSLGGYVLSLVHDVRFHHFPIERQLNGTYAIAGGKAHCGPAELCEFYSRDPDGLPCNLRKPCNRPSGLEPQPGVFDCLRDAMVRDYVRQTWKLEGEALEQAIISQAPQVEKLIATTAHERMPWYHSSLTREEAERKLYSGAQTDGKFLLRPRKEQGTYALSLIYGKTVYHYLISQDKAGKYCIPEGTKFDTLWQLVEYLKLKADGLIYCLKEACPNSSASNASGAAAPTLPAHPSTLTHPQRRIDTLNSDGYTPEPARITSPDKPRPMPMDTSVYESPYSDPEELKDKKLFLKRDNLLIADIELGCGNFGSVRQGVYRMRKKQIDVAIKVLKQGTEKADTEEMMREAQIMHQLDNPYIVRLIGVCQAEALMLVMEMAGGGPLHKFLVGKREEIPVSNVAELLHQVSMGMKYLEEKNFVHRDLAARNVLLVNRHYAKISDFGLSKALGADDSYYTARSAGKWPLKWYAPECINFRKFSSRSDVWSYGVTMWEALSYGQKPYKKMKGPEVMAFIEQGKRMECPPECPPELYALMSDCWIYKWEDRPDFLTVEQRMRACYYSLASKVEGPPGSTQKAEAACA
# Summary of the method: as §1
# [3] = target: T3, Itk (Homo sapiens, UniProt Q08881); test: Kinase inhibition assay (33P transfer), Itk; settings: for IC50: read-out: Itk-1
# T3 construct: Kinases are expressed as either kinase domains or full length constructs; made in house
# T3 sequence (Q08881 1-620): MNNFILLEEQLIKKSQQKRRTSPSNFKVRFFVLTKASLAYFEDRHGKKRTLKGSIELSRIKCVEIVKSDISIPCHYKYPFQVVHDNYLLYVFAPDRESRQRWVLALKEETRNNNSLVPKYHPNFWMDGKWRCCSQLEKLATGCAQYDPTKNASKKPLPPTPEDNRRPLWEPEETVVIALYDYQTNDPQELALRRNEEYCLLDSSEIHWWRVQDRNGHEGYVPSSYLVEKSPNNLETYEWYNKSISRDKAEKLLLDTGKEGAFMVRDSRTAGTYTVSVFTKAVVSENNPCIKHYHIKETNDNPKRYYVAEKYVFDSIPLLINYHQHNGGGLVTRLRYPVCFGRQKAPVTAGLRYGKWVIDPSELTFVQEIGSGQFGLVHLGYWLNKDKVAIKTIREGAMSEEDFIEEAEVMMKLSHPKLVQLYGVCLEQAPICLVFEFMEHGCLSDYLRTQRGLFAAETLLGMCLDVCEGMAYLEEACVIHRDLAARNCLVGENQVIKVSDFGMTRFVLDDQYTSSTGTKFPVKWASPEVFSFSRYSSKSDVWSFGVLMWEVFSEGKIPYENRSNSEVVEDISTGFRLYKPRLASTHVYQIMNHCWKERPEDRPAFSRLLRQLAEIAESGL
# Summary of the method: (§2)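 Each enzyme, purified to near homogeneity by affinity chromatography, was incubated with ATP carrying 33P and a substrate polymer fixed to the plate. Unbound label was removed with dilute phosphoric acid (0.5%) before adding scintillant and counting. Potency is given as the compound level cutting label uptake by 50%.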
# [4] = target: T4, EGFR (Homo sapiens, UniProt P00533); test: Kinase inhibition assay (33P transfer), EGFR; settings: Table 2, kinase inhibition class; for IC50: read-out: EGFR-1
# T4 construct: Kinases are expressed as either kinase domains or full length constructs; made in house
# Summary of the method: as §2
# [5] = target: T5, ErbB2 (Homo sapiens, UniProt P04626); test: Kinase inhibition assay (33P transfer), ErbB2; settings: for IC50: read-out: ErbB2-2
# T5 construct: Kinases are expressed as either kinase domains or full length constructs; made in house
# T5 sequence (P04626 23-1255, species assumed): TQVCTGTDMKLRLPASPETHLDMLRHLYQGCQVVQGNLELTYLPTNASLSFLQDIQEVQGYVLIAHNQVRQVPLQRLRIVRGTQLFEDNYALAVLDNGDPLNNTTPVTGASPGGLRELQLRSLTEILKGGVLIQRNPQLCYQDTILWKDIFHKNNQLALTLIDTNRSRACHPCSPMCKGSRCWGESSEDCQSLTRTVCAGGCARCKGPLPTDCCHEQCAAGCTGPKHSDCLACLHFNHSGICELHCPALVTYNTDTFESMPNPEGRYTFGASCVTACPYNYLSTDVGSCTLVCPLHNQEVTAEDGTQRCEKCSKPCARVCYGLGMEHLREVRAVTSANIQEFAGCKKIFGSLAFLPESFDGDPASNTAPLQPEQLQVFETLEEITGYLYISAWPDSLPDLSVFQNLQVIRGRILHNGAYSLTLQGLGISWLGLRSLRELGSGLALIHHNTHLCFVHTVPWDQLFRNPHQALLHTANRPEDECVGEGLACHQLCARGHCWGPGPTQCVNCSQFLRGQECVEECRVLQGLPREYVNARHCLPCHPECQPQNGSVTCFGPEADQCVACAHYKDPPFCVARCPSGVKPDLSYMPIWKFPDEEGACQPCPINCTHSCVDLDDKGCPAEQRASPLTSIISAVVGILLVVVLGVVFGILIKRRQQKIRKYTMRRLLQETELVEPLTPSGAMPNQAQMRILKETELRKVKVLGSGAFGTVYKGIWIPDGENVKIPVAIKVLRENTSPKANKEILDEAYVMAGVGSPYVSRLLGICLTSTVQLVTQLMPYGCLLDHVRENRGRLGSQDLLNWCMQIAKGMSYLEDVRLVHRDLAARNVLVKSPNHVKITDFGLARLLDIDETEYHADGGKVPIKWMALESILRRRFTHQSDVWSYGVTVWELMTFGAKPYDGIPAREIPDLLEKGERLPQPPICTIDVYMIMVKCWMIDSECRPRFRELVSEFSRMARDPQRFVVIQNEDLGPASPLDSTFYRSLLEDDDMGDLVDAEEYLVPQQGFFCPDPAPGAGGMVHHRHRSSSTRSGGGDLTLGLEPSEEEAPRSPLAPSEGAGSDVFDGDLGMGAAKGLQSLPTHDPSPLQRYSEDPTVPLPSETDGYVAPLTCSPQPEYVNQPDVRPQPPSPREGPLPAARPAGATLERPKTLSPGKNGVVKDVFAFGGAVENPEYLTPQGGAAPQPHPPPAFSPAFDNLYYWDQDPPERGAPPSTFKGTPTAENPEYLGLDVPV
# Summary of the method: as §2
# [6] = target: T6, Kdr (Homo sapiens, UniProt P35968); test: Kinase inhibition assay (33P transfer), Kdr; settings: for IC50: read-out: KDR-1
# T6 construct: Kinases are expressed as either kinase domains or full length constructs; made in house
# T6 sequence (P35968 20-1356, species assumed): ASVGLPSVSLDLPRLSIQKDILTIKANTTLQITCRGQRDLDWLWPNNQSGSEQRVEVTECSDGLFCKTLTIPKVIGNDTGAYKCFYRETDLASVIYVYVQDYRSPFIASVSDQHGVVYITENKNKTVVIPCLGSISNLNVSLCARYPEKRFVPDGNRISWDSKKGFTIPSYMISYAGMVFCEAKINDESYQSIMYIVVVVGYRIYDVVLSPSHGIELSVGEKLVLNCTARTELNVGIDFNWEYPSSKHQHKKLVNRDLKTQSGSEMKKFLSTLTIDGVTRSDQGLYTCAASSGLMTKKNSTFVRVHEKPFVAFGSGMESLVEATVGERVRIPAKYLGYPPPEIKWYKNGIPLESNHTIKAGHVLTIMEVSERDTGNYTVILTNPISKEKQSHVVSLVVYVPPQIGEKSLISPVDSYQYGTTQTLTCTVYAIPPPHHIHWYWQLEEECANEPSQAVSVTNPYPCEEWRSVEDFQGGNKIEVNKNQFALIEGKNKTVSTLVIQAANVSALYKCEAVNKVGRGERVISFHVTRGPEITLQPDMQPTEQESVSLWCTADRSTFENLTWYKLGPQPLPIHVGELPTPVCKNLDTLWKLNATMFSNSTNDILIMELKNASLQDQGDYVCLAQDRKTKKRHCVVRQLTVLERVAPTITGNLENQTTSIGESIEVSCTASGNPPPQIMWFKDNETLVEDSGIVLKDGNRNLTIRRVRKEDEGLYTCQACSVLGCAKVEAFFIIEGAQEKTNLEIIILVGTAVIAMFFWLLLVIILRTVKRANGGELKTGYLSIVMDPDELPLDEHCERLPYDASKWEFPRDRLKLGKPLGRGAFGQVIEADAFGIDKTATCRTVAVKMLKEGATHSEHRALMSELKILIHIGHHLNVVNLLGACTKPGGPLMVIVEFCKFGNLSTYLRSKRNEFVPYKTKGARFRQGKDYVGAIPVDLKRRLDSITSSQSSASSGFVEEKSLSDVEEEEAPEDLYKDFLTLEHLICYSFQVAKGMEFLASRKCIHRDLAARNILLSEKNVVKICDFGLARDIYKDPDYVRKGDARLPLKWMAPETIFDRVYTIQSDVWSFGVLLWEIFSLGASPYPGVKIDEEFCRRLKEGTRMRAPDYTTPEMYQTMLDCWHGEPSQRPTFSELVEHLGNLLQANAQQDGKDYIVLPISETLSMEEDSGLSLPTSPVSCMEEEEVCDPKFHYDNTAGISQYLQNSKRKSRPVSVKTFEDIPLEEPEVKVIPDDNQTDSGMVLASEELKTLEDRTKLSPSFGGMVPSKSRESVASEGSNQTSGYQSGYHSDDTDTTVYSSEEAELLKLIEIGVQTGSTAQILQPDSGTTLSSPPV
# Summary of the method: as §1
# [7] = target: T7, Tek (Homo sapiens, UniProt Q02763); test: Kinase inhibition assay (33P transfer), Tek; settings: for IC50: read-out: Tek-1
# T7 construct: Kinases are expressed as either kinase domains or full length constructs; made in house
# Summary of the method: as §2
# [8] = target: T8, c-Met (Homo sapiens, UniProt P08581); test: Kinase inhibition assay (33P transfer), c-Met; settings: Table 2, kinase inhibition class; for IC50: read-out: Met-1
# T8 construct: Kinases are expressed as either kinase domains or full length constructs; made in house
# Summary of the method: as §2
# [9] = target: T9, AKT (Homo sapiens, UniProt Q9Y243); test: Kinase inhibition assay (33P transfer), AKT; settings: Table 2, kinase inhibition class; for IC50: read-out: AKT3-1
# T9 construct: Kinases are expressed as either kinase domains or full length constructs; made in house
# T9 sequence (Q9Y243 whole entry, the tested form may be a part): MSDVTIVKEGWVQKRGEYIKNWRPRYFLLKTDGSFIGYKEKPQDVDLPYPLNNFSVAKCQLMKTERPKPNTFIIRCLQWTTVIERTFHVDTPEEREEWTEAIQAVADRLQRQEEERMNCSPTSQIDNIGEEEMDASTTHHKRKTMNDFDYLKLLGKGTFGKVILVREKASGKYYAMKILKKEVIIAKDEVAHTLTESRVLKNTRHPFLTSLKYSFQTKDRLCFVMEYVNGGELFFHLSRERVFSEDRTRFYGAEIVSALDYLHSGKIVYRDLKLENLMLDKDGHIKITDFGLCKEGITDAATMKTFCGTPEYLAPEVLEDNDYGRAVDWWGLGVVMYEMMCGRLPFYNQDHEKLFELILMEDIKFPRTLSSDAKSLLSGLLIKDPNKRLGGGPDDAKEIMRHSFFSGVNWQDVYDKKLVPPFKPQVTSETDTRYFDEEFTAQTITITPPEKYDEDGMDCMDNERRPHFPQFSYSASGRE
# Summary of the method: as §1
# [10] = target: T10, IGFR-1 (Homo sapiens, UniProt P08069); test: Kinase inhibition assay, IGFR-1 (Table 2); settings: Table 2, kinase inhibition class
# T10 construct: Kinases are expressed as either kinase domains or full length constructs; made in house
# [11] = target: T11, PDGFRB (Homo sapiens, UniProt P09619); test: Kinase inhibition assay (33P transfer), PDGFRB; settings: for IC50: read-out: PDGFRB-1
# T11 construct: Kinases are expressed as either kinase domains or full length constructs; made in house
# T11 sequence (P09619 33-1106, species assumed): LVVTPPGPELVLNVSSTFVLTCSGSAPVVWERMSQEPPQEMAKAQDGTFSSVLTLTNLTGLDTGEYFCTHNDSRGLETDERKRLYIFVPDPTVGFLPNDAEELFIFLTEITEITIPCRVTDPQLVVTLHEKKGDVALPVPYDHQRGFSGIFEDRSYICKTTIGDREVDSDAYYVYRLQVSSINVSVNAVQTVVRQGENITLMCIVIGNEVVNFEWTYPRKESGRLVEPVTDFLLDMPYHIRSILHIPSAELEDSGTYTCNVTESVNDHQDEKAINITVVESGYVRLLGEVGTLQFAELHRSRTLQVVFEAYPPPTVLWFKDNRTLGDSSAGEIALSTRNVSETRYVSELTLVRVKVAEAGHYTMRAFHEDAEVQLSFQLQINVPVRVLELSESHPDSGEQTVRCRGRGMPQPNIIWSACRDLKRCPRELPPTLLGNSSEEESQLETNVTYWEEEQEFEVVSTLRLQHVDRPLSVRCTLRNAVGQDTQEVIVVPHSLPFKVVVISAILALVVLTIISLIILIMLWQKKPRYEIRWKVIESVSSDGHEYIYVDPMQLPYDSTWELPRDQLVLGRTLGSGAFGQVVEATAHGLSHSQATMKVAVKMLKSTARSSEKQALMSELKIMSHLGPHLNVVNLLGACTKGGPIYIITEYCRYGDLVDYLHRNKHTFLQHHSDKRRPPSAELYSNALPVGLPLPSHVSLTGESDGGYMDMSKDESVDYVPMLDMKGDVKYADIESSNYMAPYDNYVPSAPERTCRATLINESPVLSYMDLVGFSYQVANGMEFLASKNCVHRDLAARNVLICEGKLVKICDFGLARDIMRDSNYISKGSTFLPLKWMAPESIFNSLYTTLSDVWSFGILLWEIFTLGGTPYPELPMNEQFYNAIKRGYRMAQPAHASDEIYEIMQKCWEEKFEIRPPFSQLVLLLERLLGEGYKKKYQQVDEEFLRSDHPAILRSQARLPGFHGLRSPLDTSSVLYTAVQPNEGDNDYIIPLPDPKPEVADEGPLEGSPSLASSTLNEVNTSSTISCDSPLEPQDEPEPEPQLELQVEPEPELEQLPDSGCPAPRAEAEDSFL
# T1 sequence (P06239 whole entry, species assumed, the tested form may be a part): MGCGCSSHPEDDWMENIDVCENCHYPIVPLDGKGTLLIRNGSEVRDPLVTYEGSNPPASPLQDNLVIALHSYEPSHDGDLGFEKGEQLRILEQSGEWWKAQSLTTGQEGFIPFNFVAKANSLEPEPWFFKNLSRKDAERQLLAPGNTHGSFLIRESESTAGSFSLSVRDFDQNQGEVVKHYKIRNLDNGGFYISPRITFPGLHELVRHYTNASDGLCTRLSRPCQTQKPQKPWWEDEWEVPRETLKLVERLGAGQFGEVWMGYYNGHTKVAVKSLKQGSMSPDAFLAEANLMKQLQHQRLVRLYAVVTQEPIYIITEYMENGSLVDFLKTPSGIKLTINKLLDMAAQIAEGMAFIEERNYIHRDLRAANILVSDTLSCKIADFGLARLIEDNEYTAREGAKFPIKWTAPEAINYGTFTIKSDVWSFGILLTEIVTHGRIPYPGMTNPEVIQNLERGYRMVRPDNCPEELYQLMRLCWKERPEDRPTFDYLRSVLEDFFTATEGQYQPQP
IC50 [1],IC50 [2],IC50 [3],IC50 [4],IC50 [5],IC50 [6],IC50 [7],IC50 [8],IC50 [9],IC50 [10],IC50 [11],SMILES,further results
> 14.8 µM,> 14.8 µM,1.31 to 7.89 µM,7.89 to 11.5 µM,> 14.8 µM,1.31 to 7.89 µM,> 14.8 µM,> 14.8 µM,> 14.8 µM,< 1.31 µM,> 14.8 µM,Nc1nc2ccccc2n1-c1ncnc(Nc2cccnc2)n1 [Compound 658],–
1.18 to 7.11 µM,7.11 to 10.4 µM,1.18 to 7.11 µM,1.18 to 7.11 µM,1.18 to 7.11 µM,1.18 to 7.11 µM,1.18 to 7.11 µM,1.18 to 7.11 µM,1.18 to 7.11 µM,1.18 to 7.11 µM,1.18 to 7.11 µM,Nc1nc2ccccc2n1-c1ncnc(Nc2cccc(Cl)c2)n1 [Compound 474],–
0.949 to 5.7 µM,> 10.7 µM,> 10.7 µM,< 0.949 µM,0.949 to 5.7 µM,8.31 to 10.7 µM,8.31 to 10.7 µM,> 10.7 µM,> 10.7 µM,< 0.949 µM,0.949 to 5.7 µM,COc1cc(Nc2ncnc(Nc3cccc(C(F)(F)F)c3)n2)cc(OC)c1OC [Compound 614],–
0.841 to 5.05 µM,> 9.46 µM,> 9.46 µM,> 9.46 µM,> 9.46 µM,< 0.841 µM,> 9.46 µM,> 9.46 µM,> 9.46 µM,> 9.46 µM,0.841 to 5.05 µM,COc1ccc(CNc2ncccc2-c2ncnc(Nc3cc(OC)c(OC)c(OC)c3)n2)nc1 [Compound 1085],–
< 0.863 µM,> 9.71 µM,7.55 to 9.71 µM,0.863 to 5.18 µM,0.863 to 5.18 µM,0.863 to 5.18 µM,0.863 to 5.18 µM,< 0.863 µM,> 9.71 µM,< 0.863 µM,0.863 to 5.18 µM,COc1cc(Nc2ncnc(Nc3cc(-c4ccc(C(=O)O)cc4)n[nH]3)n2)cc(OC)c1OC [Compound 1004],–
6.36 to 9.27 µM,6.36 to 9.27 µM,1.06 to 6.36 µM,< 1.06 µM,> 11.9 µM,< 1.06 µM,6.36 to 9.27 µM,< 1.06 µM,9.27 to 11.9 µM,1.06 to 6.36 µM,1.06 to 6.36 µM,O=C(O)Cc1cccc(Nc2ncnc(Nc3cc(-c4ccco4)n[nH]3)n2)c1 [Compound 983],–
0.991 to 5.95 µM,> 11.2 µM,8.67 to 11.2 µM,0.991 to 5.95 µM,> 11.2 µM,< 0.991 µM,0.991 to 5.95 µM,> 11.2 µM,> 11.2 µM,> 11.2 µM,0.991 to 5.95 µM,NC(=O)c1ccc(Nc2ncnc(-c3cccnc3NCc3cccs3)n2)cc1 [Compound 1083],–
–,–,–,–,–,–,–,–,–,–,–,COc1cc(Nc2ncnc(Nc3ccc(O)c4ncccc34)n2)cc(OC)c1OC [Compound 699],Lck-1 [1]: A (A<0.4 ug/mL); Zap-1 [2]: E (E>4.5 ug/mL); Itk-1 [3]: B (B>0.4 and <2.4 ug/mL); EGFR-1 [4]: B (B>0.4 and <2.4 ug/mL); ErbB2-2 [5]: A (A<0.4 ug/mL); KDR-1 [6]: B (B>0.4 and <2.4 ug/mL); Tek-1 [7]: D (D>3.5 and <4.5 ug/mL); Met-1 [8]: E (E>4.5 ug/mL); AKT3-1 [9]: E (E>4.5 ug/mL); IGFR-1 [10]: B (B>0.4 and <2.4 ug/mL); PDGFRB-1 [11]: A (A<0.4 ug/mL)
1.03 to 6.2 µM,> 11.6 µM,1.03 to 6.2 µM,< 1.03 µM,1.03 to 6.2 µM,< 1.03 µM,1.03 to 6.2 µM,< 1.03 µM,> 11.6 µM,< 1.03 µM,1.03 to 6.2 µM,O=C(O)Cc1cccc(Nc2ncnc(Nc3cc(-c4ccccc4)n[nH]3)n2)c1 [Compound 981],–
